In patent US12667101B2, “Picolinamide derivatives useful as agricultural fungicides” (GLOBACHEM NV, priority 2019, dated 2026) one finds EC50 data, which are given here for 29 molecules.

In brackets after ≈: the same amount, converted by molar mass.

The subject of the assay is Zymoseptoria tritici. Kind of assay: Fungicidal activity screen in amended agar, 96 well plates. In kind it is cell-based. As to conditions: 168 h, 1% potato dextrose agar amended to 20, 2, 0.2 and 0.02 ppm, 10,000 spores/mL, 18° C., assessed after 7 days, read-out: Zymoseptoria (EC50 ranking of fungal growth vs DMSO controls). The protocol:
Compounds were screened in 96 well plates with 10 compounds per plate. Each compound was screened using agar amended to 20, 2, 0.2 and 0.02 ppm of the test material. Proline at 50 and 10 ppm and 0.2% DMSO were used respectively as positive and negative controls. Each test concentration and standard were tested twice on a plate.
Compounds were screened against Zymoseptoria tritici. The agar used in the test was 1% potato dextrose agar. Sufficient spores were added to the appropriate agar to give 10,000 spores/mL agar.
A ×10 stock solution in 2% DMSO was produced for each dose i.e. 200, 20, 2 and 0.2 ppm, and 10 μl of this added to the appropriate wells on the plate. An equivalent amount of 2% DMSO and Proline stock at 500 and 100 ppm were added for the controls. To each well, 90 μl of the appropriate agar spore suspension was added to give the final well concentrations outlined in the first paragraph.
Plates were incubated at room temperature (18° C.) and assessed after 7 days.
The amount of fungal growth in each well was compared to the DMSO controls and scored according to the following key: • A—EC50<2 ppm • B—2≤EC50<20 • C—EC50≥20 • D—No activity detected at the highest dose tested • NT—Not tested
A word on the EC50: it is the concentration needed to bring the measured effect to its halfway point. On to `COc1ccnc(C(=O)Nc2ccc3cc(Br)ccc3n2)c1O` [Example 15, N-(6-bromoquinolin-2-yl)-3-hydroxy-4-methoxypicolinamide], for which the EC50 fell in the range of 2 to 20 µg/mL (≈ 5.34 to 53.4 µM).

On to `COc1ccnc(C(=O)Nc2ccc3nc(Oc4ccc(F)cc4)ccc3c2)c1O` [Example 2, N-(2-(4-fluorophenoxy)quinolin-6-yl)-3-hydroxy-4-methoxypicolinamide], for which the half-maximal effective concentration (EC50) was below 2 µg/mL. For the molecule `COc1ccnc(C(=O)Nc2ccc3nc(Sc4cccnc4Cl)ccc3c2)c1OC(C)=O` [Example 35, 2-((2-((2-chloropyridin-3-yl)thio)quinolin-6-yl)carbamoyl)-4-methoxypyridin-3-yl acetate], the EC50 was 2 to 20 µg/mL. As to `COc1ccnc2c(=O)n(-c3ccc4nc(N(C)c5ccccc5Cl)ccc4c3)c(=S)oc12` [Example 42, 3-(2-((2-chlorophenyl)(methyl)amino)quinolin-6-yl)-8-methoxy-2-thioxo-2,3-dihydro-4H-pyrido[2,3-e][1,3]oxazin-4-one], the concentration for a half-maximal effect (EC50) fell in the range of 2 to 20 µg/mL (≈ 4.19 to 41.9 µM). For the molecule `COc1ccnc(C(=O)Nc2ccc3nc(OC(C)C)ccc3c2)c1O` [Example 5, 3-hydroxy-N-(2-isopropoxyquinolin-6-yl)-4-methoxypicolinamide], the half-maximal effective concentration (EC50) was below 2 µg/mL. `COc1ccnc(C(=O)Nc2ccc3cc(Cc4ccccc4)ccc3n2)c1O` [Example 14, N-(6-benzylquinolin-2-yl)-3-hydroxy-4-methoxypicolinamide]: the 50% effective concentration (EC50) is at least 20 µg/mL. With `COc1ccnc(C(=O)Nc2ccc3nc(Oc4ccccc4Cl)ccc3c2)c1O` [Example 20, N-(2-(2-chlorophenoxy)quinolin-6-yl)-3-hydroxy-4-methoxypicolinamide], the concentration giving a half-maximal response (EC50) was at least 20 µg/mL. Under `COc1ccnc(C(=O)Nc2ccc3nc(Sc4ccccc4Cl)ccc3c2)c1OC(C)=O` [Example 33, 2-((2-((2-chlorophenyl)thio)quinolin-6-yl)carbamoyl)-4-methoxypyridin-3-yl acetate] stands at least 20 µg/mL; under `COc1ccnc(C(=O)Nc2ccc3nc(N(C)c4cccnc4Cl)ccc3c2)c1OC(C)=O` [Example 34, 2-((2-((2-chloropyridin-3-yl)(methyl)amino)quinolin-6-yl)carbamoyl)-4-methoxypyridin-3-yl acetate], at least 20 µg/mL; under `COc1ccnc(C(=O)Nc2ccc3nc(Cl)ccc3c2)c1O` [Example 10, N-(2-chloroquinolin-6-yl)-3-hydroxy-4-methoxypicolinamide], at least 20 µg/mL.

Turning to `COc1ccccc1Oc1ccc2cc(NC(=O)c3nccc(OC)c3O)ccc2n1` [Example 22, 3-hydroxy-4-methoxy-N-(2-(2-methoxyphenoxy)quinolin-6-yl)picolinamide], the EC50 was at least 20 µg/mL. Consider `COc1ccnc2c(=O)n(-c3ccc4nc(Oc5ccccc5Cl)ccc4c3)c(=S)oc12` [Example 40, 3-(2-(2-chlorophenoxy)quinolin-6-yl)-8-methoxy-2-thioxo-2,3-dihydro-4H-pyrido[2,3-e][1,3]oxazin-4-one], for which the EC50 was below 2 µg/mL. `COc1ccnc2c(=O)n(-c3ccc4nc(Sc5ccccc5Cl)ccc4c3)c(=S)oc12` [Example 43, 3-(2-((2-chlorophenyl)thio)quinolin-6-yl)-8-methoxy-2-thioxo-2,3-dihydro-4H-pyrido[2,3-e][1,3]oxazin-4-one]: the EC50 is at least 20 µg/mL.

Consider `COc1ccnc2c(=O)n(-c3ccc4nc(OC(C)C(C)C)ccc4c3)c(=S)oc12` (centres unmarked) [Example 39, 8-methoxy-3-(2-((3-methylbutan-2-yl)oxy)quinolin-6-yl)-2-thioxo-2,3-dihydro-4H-pyrido[2,3-e][1,3]oxazin-4-one], for which the concentration for a half-maximal effect (EC50) is at least 20 µg/mL. `COc1ccnc(C(=O)Nc2ccc3nc(Oc4cccnc4Cl)ccc3c2)c1OC(C)=O` [Example 36, 2-((2-((2-chloropyridin-3-yl)oxy)quinolin-6-yl)carbamoyl)-4-methoxypyridin-3-yl acetate]: the EC50 was at least 20 µg/mL. In the case of `COc1ccnc(C(=O)Nc2ccc3nc(N(C)c4ccc(F)cc4)ccc3c2)c1O` [Example 8, N-(2-((4-fluorophenyl)(methyl)amino)quinolin-6-yl)-3-hydroxy-4-methoxypicolinamide], the EC50 is below 2 µg/mL. Consider `COc1ccnc(C(=O)Nc2ccc3nc(Oc4ccc(F)cc4)ccc3c2)c1OC(C)=O` [Example 19, 2-((2-(4-fluorophenoxy)quinolin-6-yl)carbamoyl)-4-methoxypyridin-3-yl acetate], for which the half-maximal effective concentration (EC50) is below 2 µg/mL. Consider `COc1ccnc(C(=O)Nc2ccc3nc(Sc4ccc(F)cc4)ccc3c2)c1O` [Example 9, N-(2-((4-fluorophenyl)thio)quinolin-6-yl)-3-hydroxy-4-methoxypicolinamide], for which the EC50 was below 2 µg/mL. Regarding `COc1ccnc(C(=O)Nc2ccc3nc(OCCC(C)C)ccc3c2)c1O` [Example 7, 3-hydroxy-N-(2-(isopentyloxy)quinolin-6-yl)-4-methoxypicolinamide], the EC50 was below 2 µg/mL. As for `COc1ccnc(C(=O)Nc2ccc3nc(N(C)c4cccnc4Cl)ccc3c2)c1O` [Example 25, N-(2-((2-chloropyridin-3-yl)(methyl)amino)quinolin-6-yl)-3-hydroxy-4-methoxypicolinamide], the concentration for a half-maximal effect (EC50) was in the range of 2 to 20 µg/mL (≈ 4.59 to 45.9 µM).

Consider `COc1ccnc(C(=O)Nc2ccc3nc(Sc4ccc(F)cc4)ccc3c2)c1OC(C)=O` [Example 29, 2-((2-((4-fluorophenyl)thio)quinolin-6-yl)carbamoyl)-4-methoxypyridin-3-yl acetate], for which the EC50 is at least 20 µg/mL. Take `COc1ccnc(C(=O)Nc2ccc3nc(N(C)c4ccccc4Cl)ccc3c2)c1OC(C)=O` [Example 32, 2-((2-((2-chlorophenyl)(methyl)amino)quinolin-6-yl)carbamoyl)-4-methoxypyridin-3-yl acetate]: the EC50 was below 2 µg/mL. To `CCC(C)Oc1ccc2cc(NC(=O)c3nccc(OC)c3O)ccc2n1` (centres unmarked) [Example 11, N-(2-(sec-butoxy)quinolin-6-yl)-3-hydroxy-4-methoxypicolinamide] belongs below 2 µg/mL; to `COc1ccnc(C(=O)Nc2ccc3nc(Oc4cccnc4Cl)ccc3c2)c1O` [Example 27, N-(2-((2-chloropyridin-3-yl)oxy)quinolin-6-yl)-3-hydroxy-4-methoxypicolinamide], at least 20 µg/mL.

Consider `COc1ccnc(C(=O)Nc2ccc3nc(Sc4cccnc4Cl)ccc3c2)c1O` [Example 28, N-(2-((2-chloropyridin-3-yl)thio)quinolin-6-yl)-3-hydroxy-4-methoxypicolinamide], for which the concentration for a half-maximal effect (EC50) is at least 20 µg/mL. To `COc1ccnc(C(=O)Nc2ccc3cc(Br)ccc3n2)c1OC(C)=O` [Example 17, 2-((6-bromoquinolin-2-yl)carbamoyl)-4-methoxypyridin-3-yl acetate] belongs 2 to 20 µg/mL; to `COc1ccnc(C(=O)Nc2ccc3nc(N(C)c4ccccc4Cl)ccc3c2)c1O` [Example 23, N-(2((2-chlorophenyl)(methyl)amino)quinolin-6-yl)-3-hydroxy-4-methoxypicolinamide], below 2 µg/mL; to `COc1ccccc1Oc1ccc2cc(-n3c(=S)oc4c(OC)ccnc4c3=O)ccc2n1` [Example 41, 8-methoxy-3-(2-(2-methoxyphenoxy)quinolin-6-yl)-2-thioxo-2,3-dihydro-4H-pyrido[2,3-e][1,3]oxazin-4-one], at least 20 µg/mL. To `CCC(C)Oc1ccc2cc(-n3c(=S)oc4c(OC)ccnc4c3=O)ccc2n1` (centres unmarked) [Example 38, 3-(2-(sec-butoxy)quinolin-6-yl)-8-methoxy-2-thioxo-2,3-dihydro-4H-pyrido[2,3-e][1,3]oxazin-4-one] belongs 2 to 20 µg/mL (≈ 4.88 to 48.8 µM).
